Measured values published in patent US5834259A, “Process and composition for preparing D-aspartic acid” (Monsanto Company, priority 1996, dated 1998).

Tests used:
Type in all cases: biochemical, E. coli K12
[1] = target: T1, L-aspartate-α-decarboxylase (Escherichia coli, UniProt P0A790); assay: Re-use of cells on fresh 0.5M D/L-aspartate (Example 5); conditions: re-used cells, 37° C.
T1 construct: expressed in transfected cells; host or cells: E. coli W3110 transformed with pIF309 = strain NS3291 (ATCC 98675), whole cells
Method: Cells that had already been used in Example 3 were put in fresh substrate to determine if they were still active.
Fresh D/L-aspartate substrate was prepared as previously described in Example 3. The cells from Example 3 were resuspended in deionized H2 O and made up to 100 ml. The pH of the substrate (900 ml, 0.5M D/L-Asp) was adjusted to 7.0 with NaOH. After placing in the 2 L fermentor, the cells (100 ml) were added. There was no pH control and deionized H2 O was used for substrate. Samples were removed over time, centrifuged and the supernatant fluid diluted appropriately for both D- and L-aspartic acid determination. Temperature was set at 37° C.

[2] = target: T1, L-aspartate-α-decarboxylase; assay: Re-treatment of Example 3 supernatant fluid with fresh cells (Example 4); conditions: 37° C.
Excerpt: In all of the Examples herein, D- and L-aspartic acid isomers were quantified by HPLC using the following precolumn derivatization method. Aspartic acid was converted into diastereomers using ortho-phthalaldehyde and N-acetyl-L-cysteine. Separation of the diastereomers was achieved on a Supelcosil™ LC-18DB, 3μ, 150×4.6 mm column using a mobile phase of A: 20% methanol/80% triethylamine phosphate and B: methanol, and a step gradient as follows: […]
In this Example the supernatant fluid from Example 3 was re-treated with fresh cells. The reaction from Example 3, stopped at 68 hours, was centrifuged for 45 minutes in a GS-3 rotor at 7000 rpm. The supernatant fluid, 990 ml, was separated from the cells. 963 ml of this supernatant fluid was mixed with 137 ml fresh cells and placed in a 2 L fermentor. Bioconversion took place with mixing at 300 rpm, without automatic pH control and at a temperature of 37° C. Samples, approximately 1 ml, were removed over time and analyzed as in Example 3.

[3] = target: T1, L-aspartate-α-decarboxylase; assay: Activity towards D/L-glutamate and D/L-alanine, D/L-aspartate as control (Example 8); conditions: for concentration in supernatant fluid / percent remaining: racemate substrate, pH 7.0
Method: D/L-aspartate was run as a control.
Substrates were prepared by dissolving solid amino acid racemate in approximately 75 ml deionized H2 O and adjusting the pH to 7.0 with 10N NaOH. The volume was then brought to 100 ml with deionized H2 O. The cells used were stored frozen for about 1 month and then thawed and stored in a refrigerator for about 1 month prior to running the experiments.
The reaction was run the same as described in the prior Examples. Samples of supernatant fluid, approximately 0.20 ml, were removed over time, centrifuged and stored frozen before analysis by HPLC as described in the prior Examples.

[4] = target: T1, L-aspartate-α-decarboxylase; assay: Temperature study, 37° C. (Example 9); conditions: for concentration in supernatant fluid / percent remaining: 1.0M, 100 g/l cells
Method: 133.1 g (1 mol) of D/L-aspartic acid was dissolved in deionized H2 O and the pH was adjusted to 7.0 with 10N NaOH, approximately 100 ml. Cells, freshly thawed from -80° C., were added to achieve a final concentration of 100 g/l. Three 2 L fermentors were each charged with 963 ml of substrate solution and 137 ml of cells and then heated to 37° C. and 45° C. while mixing at 300 rpm or heated to 50° C. while mixing at 450 rpm. Samples, approximately 1 ml, were removed over time and pH adjusted to 7.0 with either NaOH or HCl. After centrifugation to remove cells, the supernatant fluid was analyzed for both D- and L-aspartic acid.

In the case of `N[C@@H](CC(=O)O)C(=O)O` [L-Asp, L-aspartic acid], the “concentration in supernatant fluid” value ([1]; 0.0000 hr) is reported as 24.700 mg/mL, the “concentration in supernatant fluid” value ([1]; 6.2500 hr) is reported as 17.130 mg/mL and the percent remaining ([1]; 6.2500 hr) is reported as 69.352%. For the same molecule, the “concentration in supernatant fluid” value ([1]; 15.250 hr) was 15.620 mg/mL, the percent remaining ([1]; 15.250 hr) was 63.239% and the “concentration in supernatant fluid” value ([1]; 25.750 hr) was 10.870 mg/mL. The percent remaining ([1]; 25.750 hr) was 44.008%, the “concentration in supernatant fluid” value ([1]; 28.000 hr) was 9.5300 mg/mL and the percent remaining ([1]; 28.000 hr) was 38.583%. The “concentration in supernatant fluid” value ([1]; 44.250 hr) was 4.4200 mg/mL, the percent remaining ([1]; 44.250 hr) was 17.895% and the “concentration in supernatant fluid” value ([1]; 63.500 hr) was 0.98 mg/mL. The percent remaining ([1]; 63.500 hr) was 3.9676%, the “concentration in supernatant fluid” value ([1]; 65.000 hr) was 0.95 mg/mL and the percent remaining ([1]; 65.000 hr) was 3.8462%. The “concentration in supernatant fluid” value ([2]; 0.0000 hr) was 0.43 mg/mL, the “concentration in supernatant fluid” value ([2]; 0.0000 hr, listed as L-aspartic acid) was 0.43 mg/mL and the “concentration in supernatant fluid” value ([2]; 2.7500 hr) was 0.11 mg/mL. For the same molecule, the percent remaining ([2]; 2.7500 hr) was 25.581%, the “concentration in supernatant fluid” value ([2]; 13.500 hr) was 0.09 mg/mL and the percent remaining ([2]; 13.500 hr) was 20.930%. For the same molecule, the “concentration in supernatant fluid” value ([2]; 15.000 hr) was 0.08 mg/mL, the percent remaining ([2]; 15.000 hr) was 18.605% and the “concentration in supernatant fluid” value ([2]; 19.500 hr) was 0.09 mg/mL. For the same molecule, the percent remaining ([2]; 19.500 hr) was 20.930%, the “concentration in supernatant fluid” value ([2]; 23.500 hr) was 0.07 mg/mL and the percent remaining ([2]; 23.500 hr) was 16.279%. For the same molecule, the “concentration in supernatant fluid” value ([2]; 23.500 hr, listed as L-aspartic acid) was 0.07 mg/mL, the “concentration in supernatant fluid” value ([2]; 39.000 hr) was 0.1 mg/mL and the percent remaining ([2]; 39.000 hr) was 23.256%. The “concentration in supernatant fluid” value ([2]; 47.000 hr) was 0.16 mg/mL, the percent remaining ([2]; 47.000 hr) was 37.209% and the “concentration in supernatant fluid” value ([2]; 51.750 hr) was 0.23 mg/mL. The percent remaining ([2]; 51.750 hr) was 53.488%, the “concentration in supernatant fluid” value ([2]; 68.500 hr) was 0.55 mg/mL and the percent remaining ([2]; 68.500 hr) was 127.91%. For the same molecule, the “concentration in supernatant fluid” value ([2]; 68.500 hr, listed as L-aspartic acid) was 0.55 mg/mL, the “substrate specificity of the enzyme” value [3] was “the only substrate for the enzyme” and the “concentration in supernatant fluid” value ([3]; 0 hr) was 26.810 mg/mL. For the same molecule, the “concentration in supernatant fluid” value ([3]; 3.5 hr) was 14.050 mg/mL, the percent remaining ([3]; 3.5 hr) was 52.406% and the “concentration in supernatant fluid” value ([3]; 8.5 hr) was 12.660 mg/mL. For the same molecule, the percent remaining ([3]; 8.5 hr) was 47.221%, the “concentration in supernatant fluid” value ([3]; 24 hr) was 9.4700 mg/mL and the percent remaining ([3]; 24 hr) was 35.323%. The “concentration in supernatant fluid” value ([3]; 55 hr) was 0.3300 mg/mL, the percent remaining ([3]; 55 hr, 3300 min) was 1.2309% and the percent remaining ([3]; 55 hr, listed as L-aspartic acid, 3300 min) was 1.23%. For the same molecule, the “concentration in supernatant fluid” value ([4]; 0.0000 hr) was 53.700 mg/mL, the “concentration in supernatant fluid” value ([4]; 2.5000 hr) was 48.940 mg/mL and the percent remaining ([4]; 2.5000 hr) was 91.136%. For the same molecule, the “concentration in supernatant fluid” value ([4]; 4.0000 hr) was 47.600 mg/mL, the percent remaining ([4]; 4.0000 hr) was 88.641% and the “concentration in supernatant fluid” value ([4]; 6.0000 hr) was 46.170 mg/mL. For the same molecule, the percent remaining ([4]; 6.0000 hr) was 85.978%, the “concentration in supernatant fluid” value ([4]; 8.0000 hr) was 44.810 mg/mL and the percent remaining ([4]; 8.0000 hr) was 83.445%. For the same molecule, the “concentration in supernatant fluid” value ([4]; 10.000 hr) was 42.120 mg/mL, the percent remaining ([4]; 10.000 hr) was 78.436% and the “concentration in supernatant fluid” value ([4]; 12.000 hr) was 42.120 mg/mL. The percent remaining ([4]; 12.000 hr) was 78.462%, the “concentration in supernatant fluid” value ([4]; 20.000 hr) was 35.960 mg/mL and the percent remaining ([4]; 20.000 hr) was 66.965%. For the same molecule, the “concentration in supernatant fluid” value ([4]; 24.000 hr) was 34.840 mg/mL, the percent remaining ([4]; 24.000 hr) was 64.879% and the “concentration in supernatant fluid” value ([4]; 29.000 hr) was 28.040 mg/mL. The percent remaining ([4]; 29.000 hr) was 54.078%, the “concentration in supernatant fluid” value ([4]; 34.000 hr) was 28.040 mg/mL and the percent remaining ([4]; 34.000 hr) was 54.078%. The “concentration in supernatant fluid” value ([4]; 44.000 hr) was 21.670 mg/mL, the percent remaining ([4]; 44.000 hr) was 40.354% and the “concentration in supernatant fluid” value ([4]; 48.000 hr) was 18.440 mg/mL. The percent remaining ([4]; 48.000 hr) was 34.339%, the “concentration in supernatant fluid” value ([4]; 68.000 hr) was 5.9700 mg/mL and the percent remaining ([4]; 68.000 hr) was 11.117%. The “concentration in supernatant fluid” value ([4]; 92.000 hr) was 0.915 mg/mL, the percent remaining ([4]; 92.000 hr) was 1.7039% and the “consumption of the isomer” value ([4]; by 99.75 hours) was “almost completely consumed”.
